In brackets after ≈: the same amount, converted by molar mass.
Experiments:
Rhizoctonia solani [1] = experiment: Antifungal activity against Rhizoctonia solani; assay type: functional, organism-based
Spodoptera littoralis [2] = experiment: Insecticidal activity against third instar larvae of topically treated Spodoptera littoralis assessed per larva after 24 hr; assay type: functional
Spodoptera littoralis [3] = experiment: Antifeedant activity against third instar larvae of Spodoptera littoralis fed on compound-treated cotton leaf disks assessed as antifeedant index at 50 ug/ml measured after 24 hr by no-choice leaf disc method; assay type: functional
Rhizoctonia solani [4] = experiment: Antifungal activity against Rhizoctonia solani by radial growth inhibition method; assay type: functional, organism-based
Spodoptera littoralis [5] = experiment: Antifeedant activity against third instar larvae of Spodoptera littoralis fed on compound-treated cotton leaf disks assessed as antifeedant index at 10 ug/ml measured after 24 hr by no-choice leaf disc method; assay type: functional
Fusarium oxysporum = experiment: Antifungal activity against Fusarium oxysporum by radial growth inhibition method; assay type: functional, organism-based
Botrytis fabae = experiment: Antifungal activity against Botrytis fabae by radial growth inhibition method; assay type: functional, organism-based
Spodoptera littoralis [6] = experiment: Antifeedant activity against third instar larvae of Spodoptera littoralis fed on compound-treated castor bean leaf disks assessed as antifeedant index at 1000 ug/ml measured after 24 hr by no-choice leaf disc method
Spodoptera littoralis [7] = experiment: Antifeedant activity against third instar larvae of Spodoptera littoralis fed on compound-treated cotton leaf disks assessed as antifeedant index at 100 ug/ml measured after 24 hr by no-choice leaf disc method; assay type: functional
[8] = system: Globisporangium debaryanum; experiment: Antifungal activity against Pythium debaryanum by radial growth inhibition method; assay type: functional, organism-based
Spodoptera littoralis [9] = experiment: Antifeedant activity against third instar larvae of Spodoptera littoralis fed on compound-treated castor bean leaf disks assessed as antifeedant index at 500 ug/ml measured after 24 hr by no-choice leaf disc method
Spodoptera littoralis [10] = experiment: Antifeedant activity against third instar larvae of Spodoptera littoralis fed on compound-treated castor bean leaf disks measured after 24 hr by no-choice leaf disc method

## CC1(C)C2CCC1(C)C(O)C2 (stereo not drawn) [BORNEOL]
Rhizoctonia solani [1]
  EC50: 447 µg/mL (≈ 2900 µM)

## CC12CCC(CC1=O)C2(C)C (stereo not drawn) [CAMPHOR]
Rhizoctonia solani [1]
  EC50: 488 µg/mL (≈ 3210 µM)

## Cc1ccc(C(C)C)cc1O [CARVACROL]
Rhizoctonia solani [1]
  EC50: 41 µg/mL (≈ 273 µM)

## C=C(C)C1CC=C(C)[C@@H](O)C1 (stereo partly drawn) [CARVEOL]
Rhizoctonia solani [1]
  EC50: 92 µg/mL (≈ 604 µM)

## CCOP(=S)(OCC)Oc1nc(Cl)c(Cl)cc1Cl [CHLORPYRIFOS]
Spodoptera littoralis [2]
  LD50: 0.12 µg

## O=C/C=C/c1ccccc1 [CINNAMALDEHYDE]
Rhizoctonia solani [1]
  EC50: 169 µg/mL (≈ 1280 µM)

## COc1cc(/C=C\C(=O)O[C@@H]2[C@@H](O[C@@H]3C[C@H](OC)[C@H](OC)[C@@H](O)/C3=C/C#N)O[C@@H](CO)[C@H](O)[C@H]2O)ccc1O [SIMMONDSIN 2'-FERULATE]
Spodoptera littoralis [2]
  LD50: 2.58 µg
Spodoptera littoralis [3]
  AFI: 44.2%
Rhizoctonia solani [4]
  EC50: 146 µg/mL (≈ 265 µM)
Spodoptera littoralis [5]
  AFI: 32.3%
Fusarium oxysporum
  EC50: 293 µg/mL (≈ 532 µM)
Botrytis fabae
  EC50: 146 µg/mL (≈ 265 µM)
Spodoptera littoralis [6]
  AFI: 90%
Spodoptera littoralis [7]
  AFI: 60.9%
[8]
  EC50: 154 µg/mL (≈ 279 µM)
Spodoptera littoralis [9]
  AFI: 76.9%
Spodoptera littoralis [10]
  Activity: Dose-dependent effect

## CO[C@H]1[C@@H](OC)C[C@@H](O[C@H]2O[C@@H](CO)[C@H](O)[C@@H](O)[C@@H]2O)/C(=C\C#N)[C@@H]1O [SIMMONDSIN]
Spodoptera littoralis [2]
  LD50: 1.49 µg
Spodoptera littoralis [3]
  AFI: 46.2%
Rhizoctonia solani [4]
  EC50: 129 µg/mL (≈ 344 µM)
Spodoptera littoralis [5]
  AFI: 38.1%
Fusarium oxysporum
  EC50: 223 µg/mL (≈ 595 µM)
Botrytis fabae
  EC50: 116 µg/mL (≈ 310 µM)
Spodoptera littoralis [6]
  AFI: 92.1%
Spodoptera littoralis [7]
  AFI: 63.4%
[8]
  EC50: 147 µg/mL (≈ 391 µM)
Spodoptera littoralis [9]
  AFI: 78.9%
Spodoptera littoralis [10]
  Activity: Dose-dependent effect

## Cc1ccc(C(C)C)c(O)c1 [THYMOL]
Rhizoctonia solani [1]
  EC50: 4 µg/mL (≈ 26.6 µM)

## COP(=S)(OC)Oc1c(Cl)cc(C)cc1Cl [TOLCOFOS-METHYL]
Rhizoctonia solani [4]
  EC50: 5.7 µg/mL (≈ 18.9 µM)
Fusarium oxysporum
  EC50: 51.3 µg/mL (≈ 170 µM)
Botrytis fabae
  EC50: 21.9 µg/mL (≈ 72.7 µM)
[8]
  EC50: 8.9 µg/mL (≈ 29.6 µM)

Source: ChEMBL document CHEMBL3046351, “Insecticidal, antifeedant and antifungal activities of two glucosides isolated from the seeds of Simmondsia chinensis” (Ind Crops Prod, 2007)
